Measured values as given in patent publication US11690897B2, “Salt inducible kinase inhibitors for enhancing fertility” (The Board of Trustees of the University of Illinois, priority 2019, dated 2023).

Experiments:
Mouse granulosa cells = test: Estradiol production by granulosa cells (ELISA); assay type: cell-based; conditions: FSH plus inhibitor, 48 hours
Method: Estradiol was determined by ELISA.
Estradiol Measurement. Cell culture medium used for steroid determinations by ELISA (DRG Instruments; RRID: AB_2756386)) following manufacturer's instructions.

rat granulosa cells = test: Cyp19a1 (aromatase) mRNA in primary rat granulosa cells, qPCR relative to Rpl19; assay type: cell-based; conditions: for FSH-stimulation of aromatase (Cyp19a1 mRNA): FSH plus inhibitor vs FSH, 48 hours, rat granulosa cells (rat and mouse)
Method: Cyp19a1 mRNA levels were quantified 48 hours later and expressed as relative levels to ribosomal L19 protein (Rp119).
FIG. 5A, Expression of each SIK isoform in rat granulosa cells exposed to scrambled oligos (shSCR) or anti-SIK1 (shSIK1), SIK2 (shSIK2), or SIK3 (shSIK3) shRNAs. *p<0.05, **p<0.01, t-test, n=3. FIG. 5B, Cyp19a1, STARD1, and CYP11a1 relative mRNA expression levels after exposure to shSCR, shSIK1, shSIK2, or shSIK3. […] FIG. 5C, Inverse correlation between SIK2 knockdown with CYP19a1 expression in rat granulosa cells.
(§1) Cyp19a1 mRNA levels were quantified 48 hours later and expressed as relative levels to Rp119. Different letters represent significant differences (mean±SEM, n=5, one-way ANOVA followed by Tukey, p<0.05). FIG. 8B, Immature 23-day-old female mice were injected i.p. with YKL or vehicle (PBS). Two hours later, animals were treated with PMSG or PMSG plus YKL. The expression of CYP19a1, CYP11a1, and STARD1 was quantified 48 hours later. *p<0.05, t-test, n=7.
Rat Granulosa Cells. Rat granulosa cells were isolated from immature rats treated with estradiol for three days. Cells were cultured and treated as described for human granulosa cells. Rat experiments were approved by the Biologic Resources Laboratory (BRL) of the University of Illinois at Chicago.
(§2) mRNA Quantification. Total RNA was isolated at the end of each experiment using TRIzol™ reagent (Invitrogen) according to the manufacturer's protocol. The isolated RNA was reverse-transcribed using anchored oligo-dT primers (IDT, Coralville, Iowa) and Moloney Murine Leukemia Virus reverse transcriptase (Invitrogen) at 37° C. for 1 hour. The resulting cDNA was diluted with water to a final volume of 100 μl and 5 μl of diluted cDNA was used for each qPCR reaction. Gene expression is reported relative to ribosomal protein L19 mRNA (Rp119).

[1] = tested on: primary human granulosa cells; test: mRNA expression of FSH target genes in primary human granulosa cells; assay type: cell-based
Description: Different letters represent significant differences (mean±SEM, N≥7, one-way ANOVA followed by Tukey, p<0.05).
Human Granulosa Cells. Human cells were collected from the follicular aspirates of women undergoing in vitro fertilization treatment at the University of Illinois at Chicago Fertility Center, under Institute Review Board approval. Informed consents were obtained from all women. In a subset of patients, additional information was collected to compare the effect of SIK inhibition in patients with different etiologies. Cells were transported immediately to the laboratory where they were dispersed by hyaluronidase digestion (8 IU/μl) and then centrifuged at 500×g for 5 minutes. Cells were incubated at room temperature in red blood cell lysis buffer for 2 minutes to eliminate contaminating erythrocytes. The cells were again centrifuged at 500×g for 5 minutes and suspended in 0.5 ml of serum-free DMEM/F12-0.25% BSA medium containing antibiotics. To investigate mRNA expression, cells were plated at a density of 30000 cells/well in 24-well plates coated with reconstituted basement membrane sold under the tradename Matrigel® (DB Biosciences). To investigate protein expression, cells were plated at a density of 200000 cells/well in 6-well plates coated with reconstituted basement membrane sold under the tradename Matrigel® (DB Biosciences). […] Each data point reflects a result obtained from individual patients. Cells from each patient were cultured separately.
as §2

granulosa cells = test: In vivo treatment of immature mice with SIK inhibitor before PMSG, granulosa cell mRNA; conditions: immature female mice, 10 mg/kg i.p. 2 h before and with PMSG, 48 hours
Method: as §1
In vivo Treatment with SIK Inhibitors. […] Controls were injected with 4 IU PMSG alone. granulosa cells were collected 48 hours after PMSG.
as §2

SIK = conditions: in vivo; cited from earlier work
human granulosa cells = test: CYP19A1 protein (western blot) in granulosa cells of IVF patients with different etiologies; assay type: cell-based; conditions: patient with anovulation, HG alone or in the presence of FSH
Description: Primary granulosa cells were obtained from patients with normal ovarian function (left panel) or patients diagnosed with polycystic ovarian syndrome or anovulation (right panel). […] The intensity of the CYP19a1 and BACT bands was quantified, and the data expressed as a ratio between aromatase and BACT. Different letters represent significant differences, one-way ANOVA followed by Tukey test, p<0.05, (n=5).
Human Granulosa Cells. Human cells were collected from the follicular aspirates of women undergoing in vitro fertilization treatment at the University of Illinois at Chicago Fertility Center, under Institute Review Board approval. Informed consents were obtained from all women. […] Cells were transported immediately to the laboratory where they were dispersed by hyaluronidase digestion (8 IU/μl) and then centrifuged at 500×g for 5 minutes. Cells were incubated at room temperature in red blood cell lysis buffer for 2 minutes to eliminate contaminating erythrocytes. The cells were again centrifuged at 500×g for 5 minutes and suspended in 0.5 ml of serum-free DMEM/F12-0.25% BSA medium containing antibiotics. […] To investigate protein expression, cells were plated at a density of 200000 cells/well in 6-well plates coated with reconstituted basement membrane sold under the tradename Matrigel® (DB Biosciences). […] Each data point reflects a result obtained from individual patients. […]

Row | SMILES | Stimulation of estradiol production by FSH (Mouse granulosa cells) | FSH-stimulation of aromatase (Cyp19a1 mRNA) (rat granulosa cells) | CYP19A1 mRNA levels, increase vs FSH only ([1]; FSH plus inhibitor, n=16 patients, P<0.0001) [fold] | CYP19A1 mRNA levels, inhibitor alone ([1]; no FSH) | Cyp11a1 mRNA induction by PMSG (granulosa cells) | Stimulatory effect of PMSG on Cyp19a1 mRNA (granulosa cells) | Stimulatory effect of PMSG on Stard1 mRNA (granulosa cells) | Phosphorylation of a known SIK substrate (SIK) | Cyp19a1 mRNA levels, inhibitor alone (rat granulosa cells; absence of FSH, HG at 1 or 3 μM) | IGF2 mRNA expression, FSH plus inhibitor vs FSH alone ([1]; 48 hours) | IGF2 mRNA levels, inhibitor alone vs controls ([1]; absence of FSH) | CYP11A1 mRNA levels, inhibitor alone ([1]; no FSH) | STARD1 mRNA levels, inhibitor alone ([1]; no FSH) | CYP19A1 levels (human granulosa cells)
1 | O=C(NCCCNc1nc(Nc2cccc(CN3CCOCC3)c2)ncc1C1CC1)C1CCC1 [MRT67307] | potentiated the stimulation of estradiol production by FSH in a dose-dependent manner | Comparable findings | 3 | did not affect CYP19A1 mRNA levels |  |  |  |  |  |  |  |  |  | 
2 | COc1ccc(N2C(=O)N(c3c(C)cccc3Cl)Cc3cnc(Nc4ccc(C5CCN(C)CC5)cc4OC)nc32)nc1 [YKL-05-099] |  | enhances the stimulatory effect of FSH on Cyp19a1 mRNA expression in a concentration-dependent manner |  |  | only a trend to increase Cyp11a1 mRNA induction | enhanced the stimulatory effect of PMSG on Cyp19a1 and Stard1 significantly | enhanced the stimulatory effect of PMSG on Cyp19a1 and Stard1 significantly | reduces phosphorylation of a known SIK substrate |  |  |  |  |  | 
3 | COc1ccc(N(C(=O)Nc2c(C)cccc2C)c2cc(Nc3ccc(N4CCN(C)CC4)cc3)ncn2)c(OC)c1 [HG-9-91-01] | potentiated the stimulation of estradiol production by FSH in a dose-dependent manner | potentiated FSH-stimulation of aromatase in a concentration-dependent manner |  |  |  |  |  |  | increased Cyp19a1 mRNA levels | tended to be higher | increased IGF2 mRNA levels significantly | enough to increase STARD1 and CYP11A1 mRNA levels | enough to increase STARD1 and CYP11A1 mRNA levels | stimulated CYP19A1 strongly
